Patent US20050215635A1, “Diarylheptanoid compounds and uses thereof” (priority 2004, published 2005)

Key:
[1] = tested on: Mouse macrophage cell line RAW 264.7; experiment: MTT assay, RAW 264.7 cell viability; format: cell-based; conditions: HMP 6.25 μM-25 μM, 48 hrs
Protocol: MTT is a pale yellow substrate that is reduced by living cells to yield a dark blue formazan product. […] Mouse macrophage cell line RAW 264.7 were cultured in 96 well flat bottom plate at concentration of 0.25 million/ml and after 12 hrs of preconditioning, various concentrations of diarylheptanoid (HMP) was added and further cultured for 48 hrs. Thereafter, culture medium was aspirated and 100 μl of MTT dye (1 mg/ml in PBS) was added and further incubated for 4 hrs at 37° C. The formazan crystals made due to dye reduction by viable cells were dissolved using acidified isopropanol (0.1 N HCl). Index of cell viability was calculated by measuring the optical density of color produced by MTT dye reduction at 570 nm.

iNOS protein expression = experiment: Western blotting of iNOS protein expression in RAW 264.7 cells; format: cell-based, mouse; conditions: HMP 12.5 and 25 μM + LPS (0.5 μg/ml), RAW 264.7, 18 hrs
Protocol: FIG. 3. Inhibition of LPS induced iNOS and COX-2 protein expression by HMP. RAW 264.7 cells were treated with various concentrations of HMP and/or LPS (0.5 μg/ml) for 18 h. Total-cell lysate (40 μg) was resolved in 8-10% SDS-PAGE then transferred to PVDF membrane and detected with specific antibodies as described in Section 6. This experiment was repeated 4 times with similar observations. Lane-1, Control (without any treatment); 2, LPS (0.5 μg/ml); 3, LPS and HMP 25 μM; 4, LPS and HMP-12.5 μM.
At indicated time points, cells were rapidly washed with ice-cold PBS and solubilized in cold lysis buffer containing 10 mM Tris-base, 5 mM EDTA, 50 mM NaCl, 1% Triton X-100, 5 mM phenylmethylsulfonyl fluoride (PMSF), 2 mM sodium orthovanadate, 10 μg/ml leupeptin, 25 μg/ml aprotinin, 1 mM sodium pyrophosphate, and 20% glycerol. […]
Equal amount of protein (40 μg) from each sample was loaded on SDS-polyacrylamide electrophoresis gel (8 and 10% separating gels for iNOS and p42/44^MAPK, respectively) and resolved for 1.5 h at 120 V in buffer containing 95 mM Tris-HCl, 960 mM glycine, and 0.5% SDS. […] Specific bands were detected by enhanced chemiluminescence's detection system (Amersham-Pharmacia biotech, NJ, USA) and the membrane was exposed to X-ray film. […]

COX-2 mRNA expression = experiment: Relative RT-PCR of COX-2 mRNA expression in RAW 264.7 cells; format: cell-based, mouse; conditions: RAW 264.7, 12 hrs
Protocol: FIG. 4A and B: Effect of HMP on mRNA expression of iNOS and COX-2. Fig. A, RAW 264.7 cells were incubated in the presence of LPS (0.5 μg/ml) with or without HMP (12.5, 25 μM) for 12 hrs. Total RNA isolated from RAW 264.7 cells after 12 hrs of treatments with LPS alone or with various concentration of HMP was reverse transcribed to make cDNA and 2 μl (for iNOS) or 1 μl (for COX-2) of cDNA was amplified using gene specific primer (Ambion Inc). Ten μl of each PCR reaction was resolved in 2% agarose gel. Lane 1, control; 2. LPS (0.5 μg/ml); 3, LPS+HMP (12.5 μM) and Lane, 4 LPS+HMP (25 μM). Fig. B, Histogram showing densitometric analysis of iNOS and COX-2 mRNA expression. […] This experiment was repeated 3 times separately with similar observation.
The RAW 264.7 cells were cultured (10^6/well) in 6 well plate for 24 hrs and then medium was replaced by fresh medium and different concentrations of HMP either alone or in combination of LPS was added and further cultured for 12 hrs. […] Linear range of amplification of iNOS and COX-2 cDNA (2 μl for COX-2 and 1μl for iNOS of RT reaction mixture) was determined using gene specific primers from Ambion Inc (TX, USA), following manufacturer's instruction. The optimum amount of 18S primer and competitor for iNOS and COX-2 gene were also determined as per manufacturer's instruction. […]

Q: With `COc1cc(CC/C=C/C(=O)CCc2ccccc2)ccc1O` [AO-4, 7-(4″-hydroxy-3″-methoxyphenyl)-1-phenyl-hept-4-en-3-one] as the compound, how does the “cytotoxic effect on RAW 264.7 cells (cell viability, MTT)” value [1] read?
A: almost no cytotoxic effect

Q: And the “LPS induced iNOS protein expression (Western blot, in words)” value (iNOS protein expression)?
A: markedly inhibited

Q: And the “inhibition of LPS induced COX-2 mRNA expression (densitometry, ratio to 18 S RNA)” value (COX-2 mRNA expression; HMP 12.5 μM + LPS (0.5 μg/ml))?
A: 27.3%

Q: What about the “inhibition of LPS induced COX-2 mRNA expression (densitometry, ratio to 18 S RNA)” value (COX-2 mRNA expression; HMP 25 μM + LPS (0.5 μg/ml)) of the same compound?
A: 54.6%
